Here are results for two compounds from US9096583B2, “Substituted 1,2,5-oxadiazole compounds and their use as herbicides II” (BASF SE, priority 2011, dated 2015).

The test system of one assay is ABUTH. Put plainly: greenhouse post-emergence herbicidal test, ABUTH. The assay is classed as in vivo, Abutilon theophrasti. The conditions noted are these: post-emergence method, application rate 1 kg/ha, scale from 0 to 100. From the text:
(§1) The seeds of the test plants were sown separately for each species. For the post-emergence treatment, the test plants were first grown to a height of 3 to 15 cm, depending on the plant habit, and only then treated with the active ingredients which had been suspended or emulsified in water. For this purpose, the test plants were either sown directly and grown in the same containers, or they were first grown separately as seedlings and transplanted into the test containers a few days prior to treatment. Depending on the species, the plants were kept at 10-25° C. or 20-35° C. The test period extended over 2 to 4 weeks. During this time, the plants were tended, and their response to the individual treatments was evaluated. Evaluation was carried out using a scale from 0 to 100. 100 means no emergence of the plants, or complete destruction of at least the aerial moieties, and 0 means no damage, or normal course of growth. A good herbicidal activity is given at values of at least 70 and a very good herbicidal activity is given at values of at least 85. [table]

The subject of another assay is ALOMY. Put plainly: greenhouse post-emergence herbicidal test, ALOMY. The assay is classed as in vivo, Alopecurus myosuroides. Conditions: post-emergence method, application rate 0.25 kg/ha, scale from 0 to 100.
From the text: as §1

For the compound `Cc1nonc1NC(=O)c1ccc(Cl)c2ncccc12` [I′.A-113], the “herbicidal activity against ABUTH” value in the assay with ABUTH is given as “good herbicidal activity (A good herbicidal activity is given at values of at least 70)”.
`COc1nonc1NC(=O)c1ccc2c(c1Cl)S(=O)(=O)CCC2(C)C` [I″.A-8]: the “herbicidal activity against ALOMY” value with ALOMY is on record as “very good herbicidal activity (a very good herbicidal activity is given at values of at least 85)”.
